Where two headings read alike, the source gives them in different places.
Experiments:
[1] = system: acne-associated type IA-2 P. acnes strains; format: cell-based, Propionibacterium acnes
Experimental: (§1) P. acnes strains and cultures.
(§2) Extraction, identification, and quantification of extracellular porphyrins. For each strain, porphyrins were extracted using the method described by Kang et al. (Sci Transl Med 7:293ra103 (2015)). Briefly, 500 μL of bacterial culture was extracted in ethyl acetate and acetic acid (4:1, v/v), and solubilized in 1.5M HCl. The absorbance at 405 nm was measured from 200 μL of the soluble phase using a Tecan Genios Spectrophotometer M1000 (Tecan US Inc, Morrisville, N.C.). The standard curve to convert absorbance to concentration was generated using coproporphyrin III standards of known concentration (C654-3, Frontier Sci). Porphyrin levels were measured in P. acnes strain KPA171202 using the quantification method described by Wollenberg et al. (MBio 5:e01286-01214 (2014)). […] Porphyrins were extracted from cultures at stationary phase. […] Bacterial culture density was measured at OD595 for normalization of porphyrin levels. For mass spectrometry experiments, extracted porphyrins were directly injected onto an Agilent 6460 Triple Quad LC/MS system and each strain's m/z in the negative ion mode was identified.
(§3) Statistical analysis for porphyrin production comparisons. The average amount of porphyrins produced by each strain under each culture condition was calculated based on the data from at least three independent experiments, with at least three replicates for each. The porphyrin levels between strains, groups (acne-associated vs. health-associated), and culture conditions (with treatment vs. without treatment) were estimated in a linear mixed effect model, with random intercepts by trial to account for trial effects. P-values for specific comparisons among groups were corrected using Tukey's method. All statistical analysis was performed using R software (version 3.1.3).
(§4) To investigate whether different P. acnes strains produce the same porphyrin species, the types of porphyrins secreted by multiple P. acnes strains where characterized using mass spectrometry. Four acne-associated type IA-2 strains, HL053PA1 (RT4), HL045PA1 (RT4), HL043PA1 (RT5), and HL043PA2 (RT5), and three health-associated type II strains, HL001PA1 (RT2), HL103PA1 (RT2), and HL042PA3 (RT6), were examined (Table 1). No difference in the porphyrin species produced by these P. acnes strains was observed. Coproporphyrin III was the dominant porphyrin isomer produced by all strains ([M+H]^+=655.3). Minimal amounts of coproporphyrin I were also detected. Porphyrin levels are measured with the following method. Bacterial cells are collected, and porphyrins are extracted. The concentration of porphyrins is measured spectrophotometrically and normalized to the optical density (also measured spectrophotometrically). Porphyrin levels are therefore measured per bacterial unit.

[2] = system: P. acnes strains; format: cell-based, Propionibacterium acnes
Experimental: Common to most of the RT4 and RT5 strains, these strains harbor mutations in their 16S and 23S rRNA genes, which confer antibiotic resistance. […] To confirm the findings, an additional three type II strains, HL110PA3, HL106PA1, and HL050PA2, were also tested. […] For each experiment, 5 mL of reinforced clostridial broth was inoculated with 5×10^5 P. acnes cells per mL of culture. Cultures were grown to stationary phase anaerobically at 37° C. in a light-protected box. Cultures were supplemented on day 0 with vitamin B12 (10 μg/mL), 5-ALA (0.1 mg/mL), and/or LA (0.1 mg/mL). As controls, P. acnes strains were also cultured without supplementation. Three to five independent experiments with at least three replicates per experiment were performed for each strain, except strains HL110PA3, HL106PA1, and HL050PA2, which were tested in only one experiment with three replicates.
Extraction, identification, and quantification of extracellular porphyrins. For each strain, porphyrins were extracted using the method described by Kang et al. (Sci Transl Med 7:293ra103 (2015)). Briefly, 500 μL of bacterial culture was extracted in ethyl acetate and acetic acid (4:1, v/v), and solubilized in 1.5M HCl. The absorbance at 405 nm was measured from 200 μL of the soluble phase using a Tecan Genios Spectrophotometer M1000 (Tecan US Inc, Morrisville, N.C.). The standard curve to convert absorbance to concentration was generated using coproporphyrin III standards of known concentration (C654-3, Frontier Sci). Porphyrin levels were measured in P. acnes strain KPA171202 using the quantification method described by Wollenberg et al. (MBio 5:e01286-01214 (2014)). […] Porphyrins were extracted from cultures at stationary phase. […] Bacterial culture density was measured at OD595 for normalization of porphyrin levels. […]

[3] = system: P. acnes; conditions: 0.1 mg/mL LA (range 0.1 to 1.0 mg/mL assessed)
Description: P. acnes strains and cultures. […] Four RT4 and RT5 P. acnes strains, HL053PA1, HL045PA1, HL043PA1, and HL043PA2, were selected to represent type IA-2 strains, which were associated with the disease based on a 16S metagenomic study (J Invest Dermatol 133:2152-2160 (2013)). […] Three RT2 and RT6 strains, HL001PA1, HL103PA1, and HL042PA3, were selected to represent type II strains that were associated with healthy skin. To confirm the findings, an additional three type II strains, HL110PA3, HL106PA1, and HL050PA2, were also tested. […] For each experiment, 5 mL of reinforced clostridial broth was inoculated with 5×10^5 P. acnes cells per mL of culture. Cultures were grown to stationary phase anaerobically at 37° C. in a light-protected box. Cultures were supplemented on day 0 with vitamin B12 (10 μg/mL), 5-ALA (0.1 mg/mL), and/or LA (0.1 mg/mL). As controls, P. acnes strains were also cultured without supplementation. Three to five independent experiments with at least three replicates per experiment were performed for each strain, except strains HL110PA3, HL106PA1, and HL050PA2, which were tested in only one experiment with three replicates.

[4] = system: health-associated type II P. acnes strains; experiment: Extracellular porphyrin production in culture, health-associated type II strains; format: cell-based, Propionibacterium acnes
Experimental: as §1, §2, §3, §4

[5] = system: P. acnes strain HL025PA1; experiment: Extracellular porphyrin production in culture, type I strain with deoR; format: cell-based, Propionibacterium acnes; conditions: 10 μg/mL vitamin B12
Experimental: as §1
as §2, with “For mass spectrometry experiments, extracted porphyrins were directly injected onto an Agilent 6460 Triple Quad LC/MS system and each strain's m/z in the negative ion mode was identified.” left out
Statistical analysis for porphyrin production comparisons. The average amount of porphyrins produced by each strain under each culture condition was calculated based on the data from at least three independent experiments, with at least three replicates for each. […]

[6] = system: cbiL (vitamin B12 biosynthesis gene) in acne-associated type IA-2 strains; experiment: cbiL gene expression by qRT-PCR, type IA-2 strains; format: cell-based, Propionibacterium acnes; conditions: 10 μg/mL vitamin B12 vs without, normalized to 16S rRNA
Experimental: (§5) RNA extraction and cDNA synthesis. For cbiL and deoR gene expression analysis, cells were lysed with bead beating. Total RNA was extracted using the standard phenol-chloroform method and purified using RNeasy kit (Qiagen). DNA was removed using the Turbo DNA-free kit (Life Technologies). RNA quality was assessed using gel electrophoresis. Single-stranded complementary DNA (cDNA) was synthesized using SuperScript III First-Strand Synthesis SuperMix (Life Technologies).
(§6) Analysis of cbiL gene expression. qRT-PCR was performed using the LightCycler 480 High Resolution Melting Master Mix (Roche) on a LightCycler 480 (Roche) with the following primers: cbiL-forward, 5′-[…]-3′ (SEQ ID NO: 1), and cbiL-reverse, 5′-[…]-3′ (SEQ ID NO: 2). The following qRT-PCR protocol was used: initial denaturation at 95° C. for 5 min, followed by 50 cycles of 95° C. for 10 sec, 62° C. for 30 sec, and 72° C. for 30 sec. The fold change in cbiL gene expression between cultures with vitamin B12 supplementation and cultures without supplementation was calculated. The gene expression level of cbiL in each sample was normalized against the 16S rRNA transcript level. Melting curve analysis was performed using the Light Cycler 480 software Version 1.5 (Roche) to verify the specificity of the amplified products based on their melting temperatures. All reactions were run in triplicate.

[7] = system: cbiL (vitamin B12 biosynthesis gene) in health-associated type II strains; experiment: cbiL gene expression by qRT-PCR, type II strains; format: cell-based, Propionibacterium acnes; conditions: 10 μg/mL vitamin B12 vs without, normalized to 16S rRNA
Experimental: as §5, §6

[8] = system: cbiL (vitamin B12 biosynthesis gene) in HL025PA1; experiment: cbiL gene expression by qRT-PCR, HL025PA1; format: cell-based, Propionibacterium acnes; conditions: 10 μg/mL vitamin B12
Experimental: as §5, §6

CC(=O)CCC(=O)O [LA, levulinic acid]
reduction of porphyrins by LA in combination with vitamin B12 [1]: no significant reduction of porphyrins | average reduction of porphyrin production compared to untreated cultures [2]: 30% | effect on bacterial growth [3]: did not significantly affect the bacterial growth

NCC(=O)CCC(=O)O [5-ALA, 5-aminolevulinic acid]
average fold increase in porphyrin production ([1]; 0.1 mg/mL 5-ALA only vs untreated controls, P<0.0001): 2.2 fold | average fold increase in porphyrin production ([4]; 0.1 mg/mL 5-ALA only vs untreated controls, P≤0.06 except HL001PA1): 3.4 fold

vitamin B12
average porphyrin level with vitamin B12 supplementation ([1]; 10 μg/mL vitamin B12, increasing from 6.5 μM without): 9.2 µM | fold increase in porphyrin production compared to substrate only ([1]; 10 μg/mL vitamin B12 in combination with 0.1 mg/mL 5-ALA): 2.7 fold | average porphyrin level with vitamin B12 supplementation ([4]; 10 μg/mL vitamin B12, 1.1 μM without, P≥0.77): 1.1 µM | further enhancement of porphyrin production compared to substrate only ([4]; 10 μg/mL vitamin B12 in combination with 0.1 mg/mL 5-ALA, P≥0.94): not in health-associated type II strains | counteraction by vitamin B12 of the inhibition of porphyrin biosynthesis by LA ([4]; 0.1 mg/mL LA with 10 μg/mL vitamin B12): not in health-associated type II strains | effect of vitamin B12 on porphyrin production level ([4]; strains HL110PA3, HL106PA1, HL050PA2, 10 μg/mL): not significantly affected | effect of vitamin B12 on porphyrin production [5]: unaffected | response of porphyrin production to vitamin B12 supplementation ([2]; type I strains, FIG. 12): increased porphyrin production | response of porphyrin production to vitamin B12 supplementation ([2]; type II and type III strains, data not shown): not observed | average fold change of cbiL gene expression [6]: 0.74 fold | average fold change of cbiL gene expression [7]: 0.24 fold | effect on vitamin B12 biosynthesis gene expression [8]: transcriptional repression
